This is an account of results in patent US11110082B2, “Tyrosine kinase inhibitors” (Rigel Pharmaceuticals, Inc., priority 2016, dated 2021).

Structures are written as SMILES.

This assay addresses T1, MerTK (Homo sapiens, UniProt Q12866).
T1 construct: Seed HUVECs (10K cells/well) in EBM-2 complete media; host or cells: HUVEC (primary human umbilical vein endothelial cells)
T1 sequence (Q12866 21-999): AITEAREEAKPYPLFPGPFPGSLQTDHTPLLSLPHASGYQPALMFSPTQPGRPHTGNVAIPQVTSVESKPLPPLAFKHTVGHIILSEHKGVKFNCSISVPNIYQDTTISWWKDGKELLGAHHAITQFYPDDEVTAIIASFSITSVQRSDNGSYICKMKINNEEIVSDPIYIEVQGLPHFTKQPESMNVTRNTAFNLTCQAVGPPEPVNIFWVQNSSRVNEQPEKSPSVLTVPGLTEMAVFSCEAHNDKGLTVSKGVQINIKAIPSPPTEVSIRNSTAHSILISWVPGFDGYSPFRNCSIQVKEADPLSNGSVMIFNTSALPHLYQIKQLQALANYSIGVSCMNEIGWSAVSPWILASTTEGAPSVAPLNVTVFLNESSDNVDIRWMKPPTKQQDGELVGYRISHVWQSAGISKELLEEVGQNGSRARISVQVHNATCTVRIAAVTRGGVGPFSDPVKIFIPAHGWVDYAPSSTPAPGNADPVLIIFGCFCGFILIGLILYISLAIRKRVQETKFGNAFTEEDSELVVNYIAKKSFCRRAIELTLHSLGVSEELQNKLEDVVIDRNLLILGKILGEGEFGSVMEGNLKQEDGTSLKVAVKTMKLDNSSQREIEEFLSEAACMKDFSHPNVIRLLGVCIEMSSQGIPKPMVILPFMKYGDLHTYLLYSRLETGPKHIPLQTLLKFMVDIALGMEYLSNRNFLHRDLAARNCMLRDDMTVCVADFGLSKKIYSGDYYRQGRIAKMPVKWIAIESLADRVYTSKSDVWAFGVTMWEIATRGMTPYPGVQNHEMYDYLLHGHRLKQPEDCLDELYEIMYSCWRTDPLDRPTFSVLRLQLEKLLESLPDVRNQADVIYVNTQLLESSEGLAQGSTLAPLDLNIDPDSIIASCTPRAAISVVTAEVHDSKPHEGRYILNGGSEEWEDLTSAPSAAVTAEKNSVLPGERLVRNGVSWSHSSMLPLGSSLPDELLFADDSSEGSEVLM
Briefly: PAKT HTRF-HUVEC assay (pAkt Ser473 HTRF after anti-human MerTK-XL stimulation). It counts as cell-based. Particulars: HUVEC cells, 1 hour compound, stimulated with anti-human MerTK-XL 1 ug/mL for 10 minutes, read-out: inhibition of MerTK. In outline:
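Akt Ser473 phosphorylation measured by HTRF in lysates of serum-starved HUVECs. Cells received compound for 1 h at 37° C before a 10-min challenge with antibody-cross-linked anti-MerTK (1 ug/mL final); EC50 derived by curve fit.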

In the case of `O=c1c2cc(N3CCN(C4COC4)CC3)ccc2c2cnc(NCC3CC3)nc2n1[C@H]1CC[C@H](O)CC1` [Compound 111, trans-3-((Cyclopropylmethyl)amino)-5-(4-hydroxycyclohexyl)-8-(4-(oxetan-3-yl)piperazin-1-yl)pyrimido[4,5-c]isoquinolin-6(5H)-one], the EC50 came to 380 nM.
Turning to `CCC[C@H](C)Nc1ncc2c3ccc(CN4CCN(C(C)(C)C)CC4)cc3c(=O)n([C@H]3CC[C@H](O)CC3)c2n1` [Compound 215], the EC50 turned out to be 3.7 nM.
As for `CCCCNc1ncc2c3ccc(N4CCC(N5CCCC5)CC4)cc3c(=O)n([C@H]3CC[C@H](O)CC3)c2n1` [Compound 71, trans-3-(Butylamino)-5-(4-hydroxycyclohexyl)-8-(4-(pyrrolidin-1-yl)piperidin-1-yl)pyrimido[4,5-c]isoquinolin-6(5H)-one], the EC50 was determined as 33.4 nM.
On to `CCC(F)(F)CNc1ncc2c3ccc(CN4CCOCC4)cc3c(=O)n([C@H]3CC[C@H](O)CC3)c2n1` [Compound 1, trans-3-((2,2-Difluorobutyl)amino)-5-(4-hydroxycyclohexyl)-8-(morpholinomethyl)pyrimido [4,5-c]isoquinolin-6(5H)-one], for which the EC50 was determined as 247 nM.
Take `CCCCNc1ncc2c3ccc(CN4CCN(C)CC4)cc3c(=O)n(CC3CCC(O)CC3)c2n1` (stereo not shown) [Compound 6, 3-(Butylamino)-5-((4-hydroxycyclohexyl)methyl)-8-((4-methylpiperazin-1-yl)methyl)pyrimido[4,5-c]isoquinolin-6(5H)-one]: the EC50 was 2040 nM.
Next, `O=c1c2cc(CN3CCN4CCC3CC4)ccc2c2cnc(NCC3CC3)nc2n1[C@H]1CC[C@H](O)CC1` [Compound 58, trans-8-((1,4-Diazabicyclo[3.2.2]nonan-4-yl)methyl)-3-((cyclopropylmethyl)amino)-5-(4-hydroxycyclohexyl)pyrimido [4,5-c]isoquinolin-6(5H)-one]: 115 nM; `CCCCNc1ncc2c3ccc(N4CCN(C)CC4)cc3c(=O)n(C3CCC(C)(O)CC3)c2n1` (stereo not drawn) [Compound 86, trans-3-(Butylamino)-5-(4-hydroxy-4-methylcyclohexyl)-8-(4-methylpiperazin-1-yl)pyrimido[4,5-c]isoquinolin-6(5H)-one]: 19.9 nM; `O=c1c2cc(CN3CCn4ncnc4C3)ccc2c2cnc(NCC3CC3)nc2n1[C@H]1CC[C@H](O)CC1` [Compound 151]: 64.6 nM.
Next, `O=c1c2cc(CN3CCC(N4CCCC4)CC3)ccc2c2cnc(NCC3CC3)nc2n1[C@H]1CC[C@H](O)CC1` [Compound 37, trans-3-((Cyclopropylmethyl)amino)-5-(4-hydroxycyclohexyl)-8-((4-(pyrrolidin-1-yl)piperidin-1-yl)methyl)pyrimido[4,5-c]isoquinolin-6(5H)-one]: 53.8 nM.
As for `CC(C)CCNc1ncc2c3ccc(CN4CCN(C)CC4)cc3c(=O)n([C@H]3CC[C@H](O)CC3)c2n1` [Compound 129], the EC50 was 45.9 nM.
Next, `CCC1(CNc2ncc3c4ccc(CN5CCN(C)CC5)cc4c(=O)n([C@H]4CC[C@H](O)CC4)c3n2)CC1` [Compound 22, trans-3-(((1-Ethylcyclopropyl)methyl)amino)-5-(4-hydroxycyclohexyl)-8-((4-methylpiperazin-1-yl)methyl)pyrimido[4,5-c]isoquinolin-6(5H)-one]: 589 nM; `CCC1(CNc2ncc3c4ccc(N5CCN(C)CC5)cc4c(=O)n([C@H]4CC[C@H](O)CC4)c3n2)CC1` [Compound 94, trans-3-(((1-Ethylcyclopropyl)methyl)amino)-5-(4-hydroxycyclohexyl)-8-(4-methylpiperazin-1-yl)pyrimido[4,5-c]isoquinolin-6(5H)-one]: 1100 nM.
As for `O=c1c2cc(CC3CCN(c4ccncc4)CC3)ccc2c2cnc(NCC3CC3)nc2n1[C@H]1CC[C@H](O)CC1` [Compound 218, trans-3-((Cyclopropylmethyl)amino)-5-(4-hydroxycyclohexyl)-8-((1-(pyridin-4-yl)piperidin-4-yl)methyl)pyrimido[4,5-c]isoquinolin-6(5H)-one], the EC50 came out at 24.2 nM.
